pIC50: −log10 of the molar value. Values after ≈ are worked out from the molar mass of the structure shown.

The subject of test [1] is DHODH (dihydroorotate dehydrogenase). The experiment in a line: DHODH assay. It counts as biochemical. To be noted: test concentration not given.
Test [2] has as its system Staphylococcus aureus ATCC29213. The experiment in a line: MIC determination in broth microdilution assay. On the technique in general: Broth dilution looks for growth in wells or tubes with falling amounts of substance.
For test [3], the system named is Staphylococcus aureus ATCC33591 (resistant to methicillin). In words: MIC determination in broth microdilution assay.
The test system of test [4] is Staphylococcus intermedius #2357 (clinical isolate). In words: MIC determination in broth microdilution assay.
The test system of test [5] is Enterococcus faecalis ATCC29212. In words: MIC determination in broth microdilution assay.
Test [6] has as its system Enterococcus faecium #17501 (vancomycin-resistant clinical isolate). In words: MIC determination in broth microdilution assay.
Test [7] concerns Streptococcus pneumoniae #998 (clinical isolate). In words: MIC determination in broth microdilution assay.
For test [8], the system named is Eschericia coli ATCC25922. The experiment in a line: MIC determination in broth microdilution assay.
The test system of another test is Eschericia coli ESS. In words: MIC determination in broth microdilution assay.
Test [9] concerns Plasmodium berghei K173. In words: Multiple intra venous administration in Plasmodium berghei K173 infected NMRI female mice. It counts as in vivo. To be noted: FIG. 7. On the procedure:
The doses stated were administered intra venously as solutions in a suitable vehicle.

For test [10], the system named is Plasmodium berghei K173. In words: Multiple oral administrations in Plasmodium berghei K173 infected NMRI female mice. It counts as in vivo. To be noted: FIG. 8.
The subject of test [11] is Plasmodium falciparum 3D7. In words: Plasmodium falciparum assay. Particulars: Plasmodium falciparum, 3D7, read-out: Plasmodium falciparum IC50, 3D7(Cq-sen). It counts as cell-based.
Test [12] relates to Plasmodium falciparum DD2 (Cq-res). In words: Plasmodium falciparum assay, resistant strain. It counts as cell-based. To be noted: DD2, read-out: Plasmodium falciparum IC50, DD2 (Cq-res).
The test system of test [13] is Plasmodium falciparum 7G8(Cq-res). In words: Plasmodium falciparum assay, resistant strain. It counts as cell-based. Particulars: 7G8, read-out: Plasmodium falciparum IC50, 7G8(Cq-res).
Test [14] deals with Plasmodium falciparum K1(Cq-res). The experiment in a line: Plasmodium falciparum assay, resistant strain. Format: cell-based. Particulars: K1, read-out: Plasmodium falciparum IC50, K1(Cq-res).

As to `CN(C)CCCNCc1cccc(C(=O)/C=C/c2ccc(Cl)cc2Cl)c1` [A022, (E)-3-(2,4-Dichloro-phenyl)-1-{3-[(3-dimethylamino-propylamino)-methyl]-phenyl}-propenone], the “Inhibition of DHODH” value in [1] came to 28%. Moreover, the “MIC, A: Staphylococcus aureus ATCC29213” value in [2] is 37.5 µM (≈ 14.7 µg/mL). For the same molecule, in test [3], the “MIC, B: Staphylococcus aureus ATCC33591” value is 37.5 µM (≈ 14.7 µg/mL). The “MIC, C: Staphylococcus intermedius #2357” value in [4] worked out at 37.5 µM (≈ 14.7 µg/mL). Besides, the “MIC, D: Enterococcus faecalis ATCC29212” value in test [5] stood at 18.8 µM (≈ 7.36 µg/mL). The “MIC, E: Enterococcus faecium #17501” value in [6] was 18.8 µM (≈ 7.36 µg/mL). For the same molecule, in test [7], the “MIC, F: Streptococcus pneumoniae #998” value turned out to be 18.8 µM (≈ 7.36 µg/mL). In test [8], the “MIC, G: Eschericia coli ATCC25922” value is 18.8 µM (≈ 7.36 µg/mL). Further, the “MIC, H: Eschericia coli ESS” value in the test on Eschericia coli ESS came to 18.8 µM (≈ 7.36 µg/mL).
For `CN(C)Cc1ccccc1C(=O)/C=C/c1ccc(Cl)cc1Cl` [A027, (E)-3-(2,4-Dichloro-phenyl)-1-(2-dimethylaminomethyl-phenyl)-propenone], the “parasitaemia, multiple intra venous administrations” value in the test on Plasmodium berghei K173 [9] is given as “significant decrease in the parasitaemia”. In the test on Plasmodium berghei K173 [10], the “parasitaemia, multiple oral administrations” value is “significant decrease in the parasitaemia”.
Consider `COc1ccc(-c2ccccc2)cc1/C=C/C(=O)c1ccc(CCN(C)C)cc1` [A117, (E)-1-[4-(2-Dimethylamino-ethyl)-phenyl]-3-(4-methoxy-biphenyl-3-yl)-propenone], for which, in test [2], the “MIC, A: Staphylococcus aureus ATCC29213” value was 9.4 µM (≈ 3.62 µg/mL). For the same molecule, in [3], the “MIC, B: Staphylococcus aureus ATCC33591” value stood at 9.4 µM (≈ 3.62 µg/mL). In test [4], the “MIC, C: Staphylococcus intermedius #2357” value worked out at 9.4 µM (≈ 3.62 µg/mL). For the same molecule, the “MIC, D: Enterococcus faecalis ATCC29212” value in test [5] was 37.5 µM (≈ 14.5 µg/mL). Also, in [6], the “MIC, E: Enterococcus faecium #17501” value turned out to be 37.5 µM (≈ 14.5 µg/mL). Further, in [7], the “MIC, F: Streptococcus pneumoniae #998” value came to 37.5 µM (≈ 14.5 µg/mL). Further, the “MIC, G: Eschericia coli ATCC25922” value in test [8] was determined as 150 µM (≈ 57.8 µg/mL). In addition, the “MIC, H: Eschericia coli ESS” value against Eschericia coli ESS is 9.4 µM (≈ 3.62 µg/mL).
With `CCN(CC)CCCC(C)Nc1ccnc2cc(Cl)ccc12` (centres unmarked) [Chloroquine], the pIC50 (as a rule, the IC50 on a negative log10 scale, so that one unit is a factor of ten) is 6.89 in test [11], 6.00 in [12], 5.96 in [13] and less than 5.81 in test [14].

For the origin of these results see patent publication US20060052600A1, “Amino-functional chalcones” (priority 2002, published 2006).
